In patent publication US11225503B2, “Crystobactamides” (HELMHOLTZ-ZENTRUM FÜR INFEKTIONSFORSCHUNG GMBH, priority 2013, dated 2022):
Where two headings read alike, the source gives them in different places.

Columns and labels:
[1] = target: ATP binding pocket on GyrB of E. coli gyrase (Escherichia coli, UniProt P0AES4+P0AES6); conditions: constant cystobactamide D; ATP up to 10 mM (2000 fold cystobactamide concentration)
From the text: (§4) (B) Here, standard gyrase reactions were inhibited using a constant amount of cystobactamide D and titrated with increasing amounts of ATP. If ATP and cystobactamide D would compete for binding at the ATP binding pocket on the gyrase GyrB subunit, increasing amounts of ATP would lead to the formation of supercoiled plasmid in the assay.
To test if cystobactamides compete with ATP for binding to the ATP binding pocket on GyrB, standard gyrase supercoiling assays (see a) with varying ATP concentrations were performed. Standard reaction mixes (1 mM ATP) were supplemented with ATP (0.5M ATP stock solution, ATP was purchased from Sigma-Aldrich) to final ATP concentrations of 2.5; 5 and 10 mM. All reactions were performed in triplicates.

[2] = target: DNA/gyrase complex (Escherichia coli, UniProt P0AES4+P0AES6); conditions: cystobactamide D 18 μM, ciprofloxacin 1 μM
Method: as §4
To test if cystobactamides stabilize the covalent complex between DNA gyrase and the nicked DNA substrate, proteinase K linearization assay were performed (see a). […] To detect linearized plasmid bands the relaxed plasmid was digested by the single-cutting restriction enzyme Ndel.

[3] = target: T1, H. sapiens topoisomerase I (Homo sapiens, UniProt P11387); assay: Topoisomerase I relaxation (inhibition) assay; type: biochemical
T1 construct: purchased Inspiralis (Norwich, UK)
T1 sequence (P11387 1-765): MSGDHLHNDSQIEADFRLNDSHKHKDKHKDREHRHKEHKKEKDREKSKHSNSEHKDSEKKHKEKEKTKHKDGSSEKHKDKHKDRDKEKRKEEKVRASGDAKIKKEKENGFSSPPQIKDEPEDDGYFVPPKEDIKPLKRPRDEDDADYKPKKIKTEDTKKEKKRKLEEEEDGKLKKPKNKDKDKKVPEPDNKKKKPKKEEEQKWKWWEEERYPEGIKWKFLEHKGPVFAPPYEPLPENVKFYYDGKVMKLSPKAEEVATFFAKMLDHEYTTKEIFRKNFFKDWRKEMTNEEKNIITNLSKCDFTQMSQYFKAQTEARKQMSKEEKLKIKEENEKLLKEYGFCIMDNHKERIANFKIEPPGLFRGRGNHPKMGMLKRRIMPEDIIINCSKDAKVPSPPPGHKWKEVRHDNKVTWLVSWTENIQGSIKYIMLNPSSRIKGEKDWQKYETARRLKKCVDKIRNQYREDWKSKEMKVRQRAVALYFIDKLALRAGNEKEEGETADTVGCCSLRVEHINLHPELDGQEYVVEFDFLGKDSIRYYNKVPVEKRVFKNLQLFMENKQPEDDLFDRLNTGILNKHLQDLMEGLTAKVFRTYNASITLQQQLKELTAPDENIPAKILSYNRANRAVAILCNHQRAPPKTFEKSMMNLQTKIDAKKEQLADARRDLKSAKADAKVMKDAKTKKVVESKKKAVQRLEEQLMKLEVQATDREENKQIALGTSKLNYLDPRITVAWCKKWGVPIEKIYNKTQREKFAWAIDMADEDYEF
Method: Aside the ATP-dependent type IIa topoisomerases like E. coli gyrase, topoIV and human topoII, the activity of cystobactamides on the ATP-independent human topoisomerase I was tested as well.
The topo I reactions were titrated with varying concentrations of A-D and resolved by agarose gel electrophoresis. For IC50 determination the band intensity of the supercoiled plasmid was determined using Adobe Photoshop, plotted vs. [cystobactamide] and fitted using Hill's equation.
(§1) Following natural product concentrations were used in the assay:
Cystobactamide C: 300 μM; 30 μM; 3 μM
Control reactions were: no enzyme and a standard reaction in presence of 5% (v/v) DMSO. All reaction samples were equilibrated for 10 minutes at room-temperature in the absence of DNA. Then the relaxed plasmid was added to start the reaction
(§2) To determine IC50 values, the formation of supercoiled (gyrase) or relaxed (topoisomerase I, II IV) plasmid was quantified using Adobe Photoshop (Histogram mode). Plotting of these values versus the compound concentration yielded sigmoidal shaped curves, which were fitted using Hill's equation (Origin Pro 8.5). All determined IC50 values are the averages of three independent experiments.

[4] = target: T2, H. sapiens topoisomerase II (Homo sapiens, UniProt P11388); assay: Topoisomerase II relaxation (inhibition) assay; type: biochemical; conditions: read-out: IC50, human topo II
T2 construct: purchased Inspiralis (Norwich, UK)
Method: The topo II reactions were titrated with varying concentrations of A-D and resolved by agarose gel electrophoresis. For IC50 determination the band intensity of the supercoiled plasmid was determined using Adobe Photoshop, plotted vs. [cystobactamide] and fitted using Hill's equation.
as §1
(§3) Control reactions were: no enzyme and a standard reaction in presence of 5% (v/v) DMSO. All reaction samples were equilibrated for 10 minutes at room-temperature in the absence of DNA. Then the relaxed plasmid was added to start the reaction.
as §2

[5] = target: T3, E. coli gyrase (Escherichia coli, UniProt P0AES4+P0AES6); assay: Gyrase supercoiling (inhibition) assay; type: biochemical
T3 construct: purchased Inspiralis (Norwich, UK)
Method: To test the anti-gyrase activity of cystobactamides, commercial E. coli gyrase supercoiling kits (Inspiralis) were used.
For IC50 determination the band intensity of the supercoiled plasmid was determined using Adobe Photoshop, plotted vs. [cystobactamide] and fitted using Hill's equation.
All natural products stock solutions and dilutions were prepared in 100% DMSO and added to the supercoiling reactions giving a final DMSO concentration of 5% (v/v).
as §1
Control reactions were: no enzyme and a standard reaction in presence of 5% (v/v) DMSO.
All reaction samples were equilibrated for 10 minutes at room-temperature in the absence of DNA. Then the relaxed plasmid was added to start the reaction.
To determine IC50 values, the formation of supercoiled (gyrase) or relaxed (topoisomerase I, II IV) plasmid was quantified using Adobe Photoshop (Histogram mode). […] All determined IC50 values are the averages of three independent experiments.

[6] = target: T4, E. coli topoisomerase IV (Escherichia coli, UniProt P0AFI2+P20083); assay: Topoisomerase IV relaxation (inhibition) assay; type: biochemical
T4 construct: purchased Inspiralis (Norwich, UK)
Method: Prokaryotic DNA gyrase and topoisomerase IV share a high degree of homology and gyrase inhibitors typically show a topoisomerase IV inhibitory activity.^8 To test the influence of the cystobactamides on topoisomerase IV a commercial E. coli topoisomerase IV kit (Inspiralis) was used.
The topo IV reactions were titrated with varying concentrations of A-D and resolved by agarose gel electrophoresis. For IC50 determination the band intensity of the supercoiled plasmid was determined using Adobe Photoshop, plotted vs. [cystobactamide] and fitted using Hill's equation.
as §1, §3, §2

T4 sequence (P20083 whole entry): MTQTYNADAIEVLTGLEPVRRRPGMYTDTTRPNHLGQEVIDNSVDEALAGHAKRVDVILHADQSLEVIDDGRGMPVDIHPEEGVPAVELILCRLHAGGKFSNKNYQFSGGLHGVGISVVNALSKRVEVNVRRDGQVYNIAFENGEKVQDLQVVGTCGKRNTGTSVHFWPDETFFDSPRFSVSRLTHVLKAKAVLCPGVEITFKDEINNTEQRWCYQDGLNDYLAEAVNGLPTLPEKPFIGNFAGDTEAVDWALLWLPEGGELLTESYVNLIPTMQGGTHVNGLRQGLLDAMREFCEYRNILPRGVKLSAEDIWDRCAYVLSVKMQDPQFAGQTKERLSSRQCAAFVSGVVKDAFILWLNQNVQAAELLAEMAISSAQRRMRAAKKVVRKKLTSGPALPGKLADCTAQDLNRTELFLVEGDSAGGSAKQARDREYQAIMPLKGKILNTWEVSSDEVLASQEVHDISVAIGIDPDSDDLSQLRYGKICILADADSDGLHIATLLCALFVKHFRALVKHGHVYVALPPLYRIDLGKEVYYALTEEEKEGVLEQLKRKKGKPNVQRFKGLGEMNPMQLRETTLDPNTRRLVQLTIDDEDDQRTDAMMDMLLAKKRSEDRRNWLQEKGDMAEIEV
T4 sequence (P0AFI2 whole entry): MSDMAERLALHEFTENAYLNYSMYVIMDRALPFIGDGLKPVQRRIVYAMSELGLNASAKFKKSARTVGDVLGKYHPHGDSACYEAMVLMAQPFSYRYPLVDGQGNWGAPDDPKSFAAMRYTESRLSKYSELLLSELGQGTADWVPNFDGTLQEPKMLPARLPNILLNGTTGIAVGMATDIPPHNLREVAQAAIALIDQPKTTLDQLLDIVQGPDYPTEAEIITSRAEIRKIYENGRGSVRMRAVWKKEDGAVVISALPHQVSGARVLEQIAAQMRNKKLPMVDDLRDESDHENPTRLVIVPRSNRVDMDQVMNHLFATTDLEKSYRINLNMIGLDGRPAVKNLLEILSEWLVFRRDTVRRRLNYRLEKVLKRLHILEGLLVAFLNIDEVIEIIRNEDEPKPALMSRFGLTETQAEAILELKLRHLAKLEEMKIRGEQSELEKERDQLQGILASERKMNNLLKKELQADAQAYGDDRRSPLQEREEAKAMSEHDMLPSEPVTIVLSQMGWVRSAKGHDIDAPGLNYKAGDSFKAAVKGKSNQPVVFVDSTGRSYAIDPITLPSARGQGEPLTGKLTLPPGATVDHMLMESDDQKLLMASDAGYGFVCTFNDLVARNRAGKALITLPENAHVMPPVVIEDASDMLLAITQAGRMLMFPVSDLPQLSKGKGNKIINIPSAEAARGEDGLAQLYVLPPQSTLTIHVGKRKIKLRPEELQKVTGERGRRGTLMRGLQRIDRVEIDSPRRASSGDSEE
T3 sequence (P0AES4 whole entry, one chain of several): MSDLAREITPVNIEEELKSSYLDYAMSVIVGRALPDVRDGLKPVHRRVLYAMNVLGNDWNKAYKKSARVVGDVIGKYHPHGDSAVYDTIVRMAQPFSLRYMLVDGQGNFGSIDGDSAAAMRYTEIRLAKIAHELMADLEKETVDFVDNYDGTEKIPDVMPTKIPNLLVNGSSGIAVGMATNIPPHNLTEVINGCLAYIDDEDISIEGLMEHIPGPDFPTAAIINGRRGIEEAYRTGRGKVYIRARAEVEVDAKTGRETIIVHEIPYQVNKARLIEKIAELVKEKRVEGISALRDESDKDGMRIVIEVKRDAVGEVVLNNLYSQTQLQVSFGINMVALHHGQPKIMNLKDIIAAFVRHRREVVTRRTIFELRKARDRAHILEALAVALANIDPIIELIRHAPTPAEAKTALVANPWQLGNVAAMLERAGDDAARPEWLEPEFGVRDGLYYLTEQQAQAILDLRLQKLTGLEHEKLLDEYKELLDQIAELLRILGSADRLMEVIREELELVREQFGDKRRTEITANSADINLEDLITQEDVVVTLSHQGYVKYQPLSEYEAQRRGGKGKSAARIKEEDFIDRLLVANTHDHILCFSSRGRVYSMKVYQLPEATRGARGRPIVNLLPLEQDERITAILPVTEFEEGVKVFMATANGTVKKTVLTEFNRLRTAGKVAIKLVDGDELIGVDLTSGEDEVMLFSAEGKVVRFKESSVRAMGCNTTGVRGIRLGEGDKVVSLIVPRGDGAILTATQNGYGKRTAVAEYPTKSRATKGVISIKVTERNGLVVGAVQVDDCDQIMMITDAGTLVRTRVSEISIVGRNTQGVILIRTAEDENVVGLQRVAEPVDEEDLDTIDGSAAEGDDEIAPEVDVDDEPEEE
Sequence of ATP binding pocket on GyrB of E. coli gyrase (P0AES4 whole entry, one chain of several): as above
Sequence of DNA/gyrase complex (P0AES4 whole entry, one chain of several): as above

## COc1cc(C(=O)O)ccc1NC(=O)c1ccc(NC(=O)c2ccc(NC(=O)C(NC(=O)c3ccc(NC(=O)c4ccc([N+](=O)[O-])cc4)cc3)C(OC)C(N)=O)cc2)c(OC)c1O (stereo not shown) [cystobactamide D]
[1]
  regain of gyrase activity on titration with ATP: the gyrase activity is not regained
[2]
  formation of linearized plasmid after proteinase K treatment: formation of linearized plasmid
[3]
  IC50: ~33.6 µM
[4]
  IC50: 41.2 µM
[5]; E. coli gyrase 20.5 nM eq. 1 unit, read-out: apparent IC50, E. coli gyrase
  IC50: 1 µM
[5]; E. coli gyrase, read-out: IC50 gyrase
  IC50: 0.7 µM
[5]; table, averages of three independent experiments, read-out: IC50 in the Gyrase inhibition assay
  IC50: 0.7 µM
[6]; E. coli topoisomerase IV, read-out: IC50 Topo IV
  IC50: 10 µM
[6]; averages of three independent experiments, read-out: IC50 in the E. coli Topoisomerase IV inhibition assay
  IC50: 10 µM
[6]; topo IV vs. gyrase
  ratios IC50(topo IV)/IC50(gyrase): ~14
